The record followed here is US7598245B2 (Vertex Pharmaceuticals Incorporated, priority 2003, dated 2009).

Common to all, as to format: biochemical
In one assay the target is T1, human Src kinase (Homo sapiens, UniProt P12931).
T1 construct: 25 nM of recombinant human Src kinase
Briefly: Src inhibition assay B: spectrophotometric (uv-vis) coupled enzyme assay. Particulars: 100 μM ATP. The method, then: The compounds are evaluated as inhibitors of human Src kinase using either a radioactivity-based assay or spectrophotometric assay.
Src Inhibition Assay B: Spectrophotometric Assay
The ADP produced from ATP by the human recombinant Src kinase-catalyzed phosphorylation of poly Glu-Tyr substrate is quantified using a coupled enzyme assay [Fox et al. Protein Sci. 1998, 7, 2249]. In this assay one molecule of NADH is oxidised to NAD for every molecule of ADP produced in the kinase reaction. The disappearance of NADH is conveniently followed at 340 nm.
The following are the final concentrations of the assay components: 0.025 M HEPES (pH 7.6), 10 mM MgCl2, 2 mM DTT, 0.25 mg/ml poly Glu-Tyr, and 25 nM of recombinant human Src kinase. Final concentrations of the components of the coupled enzyme system are 2.5 mM phosphoenolpyruvate, 200 μM NADH, 30 μg/ml pyruvate kinase and 10 μg/ml lactate dehydrogenase.
In a typical assay, all the reaction components with the exception of ATP are pre-mixed and aliquoted into assay plate wells. Inhibitors dissolved in DMSO are added to the wells to give a final DMSO concentration of 2.5%. The assay plate is incubated at 30° C. for 10 min before initiating the reaction with 100 μM ATP. The absorbance change at 340 nm with time, the rate of the reaction, is monitored on a molecular devices plate reader. The data of rate as a function of the inhibitor concentration is fitted to competitive inhibition kinetics model to get the Ki for the compound.

In another assay the target is T2, PDK-1 (Homo sapiens, UniProt O15530).
T2 sequence (O15530 1-556): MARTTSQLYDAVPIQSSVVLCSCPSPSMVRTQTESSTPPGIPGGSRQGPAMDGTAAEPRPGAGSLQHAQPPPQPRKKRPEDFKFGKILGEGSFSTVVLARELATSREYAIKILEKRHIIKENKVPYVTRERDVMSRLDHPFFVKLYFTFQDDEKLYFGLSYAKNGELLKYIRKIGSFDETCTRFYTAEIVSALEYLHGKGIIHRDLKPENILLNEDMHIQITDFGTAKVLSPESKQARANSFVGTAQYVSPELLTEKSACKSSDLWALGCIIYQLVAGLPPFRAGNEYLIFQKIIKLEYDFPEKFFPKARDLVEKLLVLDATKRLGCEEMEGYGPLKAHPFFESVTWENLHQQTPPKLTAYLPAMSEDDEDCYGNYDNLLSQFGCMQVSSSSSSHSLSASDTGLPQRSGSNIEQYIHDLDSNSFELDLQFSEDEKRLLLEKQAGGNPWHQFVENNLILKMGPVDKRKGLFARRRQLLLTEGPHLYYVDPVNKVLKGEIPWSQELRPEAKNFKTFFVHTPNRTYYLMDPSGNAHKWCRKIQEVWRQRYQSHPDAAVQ
Description: PDK-1 inhibition, radioactive-phosphate incorporation assay. Particulars: 40 μM ATP. The method, then:
Compounds were screened for their ability to inhibit PDK-1 using a radioactive-phosphate incorporation assay (Pitt and Lee, J. Biomol. Screen., (1996) 1, 47). Assays were carried out in a mixture of 100 mM HEPES (pH 7.5), 10 mM MgCl2, 25 mM NaCl, 2 mM DTT. Final substrate concentrations in the assay were 40 μM ATP (Sigma Chemicals) and 65 μM peptide (PDKtide, Upstate, Lake Placid, N.Y.). Assays were carried out at 30° C. and 25 nM PDK-1 in the presence of ˜27.5 nCi/μL of [γ-^32P]ATP (Amersham Pharmacia Biotech, Amersham, UK). An assay stock buffer solution was prepared containing all of the reagents listed above, with the exception of ATP, and the test compound of interest. 15 μl of the stock solution was placed in a 96 well plate followed by addition of 1 μl of 0.5 mM DMSO stock containing the test compound (final compound concentration 25 μM, final DMSO concentration […]). The plate was preincubated for about 10 minutes at 30° C. and the reaction initiated by addition of 4 μl ATP (final concentration 40 μM).
The reaction was stopped after 10 minutes by the addition of 100 μL 100 mM phosphoric acid, 0.01% Tween-20. A phosphocellulose 96 well plate (Millipore, Cat no. MAPHNOB50) was pretreated with 100 μL 100 mM phosphoric acid, 0.01% Tween-20 prior to the addition of the reaction mixture (100 μL). The spots were left to soak for at least 5 minutes, prior to wash steps (4×200 μL 100 mM phosphoric acid, 0.01% Tween-20). After drying, 20 μL Optiphase ‘SuperMix’ liquid scintillation cocktail (Perkin Elmer) was added to the well prior to scintillation counting (1450 Microbeta Liquid Scintillation Counter, Wallac).

The next assay addresses T3, Aurora-2 (Homo sapiens, UniProt O14965).
T3 construct: addition of 10 μL of Aurora-2 stock solution to give a final concentration of 70 nM
T3 sequence (O14965 1-403): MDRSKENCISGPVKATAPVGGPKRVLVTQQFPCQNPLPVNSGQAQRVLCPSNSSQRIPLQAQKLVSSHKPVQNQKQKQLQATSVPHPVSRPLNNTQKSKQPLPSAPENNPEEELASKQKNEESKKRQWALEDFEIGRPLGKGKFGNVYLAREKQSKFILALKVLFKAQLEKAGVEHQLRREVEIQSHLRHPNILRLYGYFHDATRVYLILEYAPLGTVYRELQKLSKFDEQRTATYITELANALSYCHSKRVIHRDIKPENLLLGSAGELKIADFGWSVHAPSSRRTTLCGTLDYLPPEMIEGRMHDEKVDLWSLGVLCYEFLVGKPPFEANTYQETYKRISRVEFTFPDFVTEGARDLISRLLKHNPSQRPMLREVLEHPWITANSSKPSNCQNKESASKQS
Briefly: Inhibition of AUR-2, coupled enzyme assay. The procedure:
Compounds are screened in the following manner for their ability to inhibit Aurora-2 using a standard coupled enzyme assay (Fox et al (1998) Protein Sci 7, 2249). To an assay stock buffer solution containing 0.1M HEPES 7.5, 10 mM MgCl2, 1 mM DTT, 25 mM NaCl, 2.5 mM phosphoenolpyruvate, […], 30 mg/ml pyruvate kinase, 10 mg/ml lactate dehydrogenase, 40 mM ATP, and 800 μM peptide (LRRASLG, American Peptide, Sunnyvale, Calif.) is added a DMSO solution of a compound of the present invention to a final concentration of 30 μM. The resulting mixture is incubated at 30° C. for 10 min. The reaction was initiated by the addition of 10 μL of Aurora-2 stock solution to give a final concentration of 70 nM in the assay. The rates of reaction are obtained by monitoring absorbance at 340 nm over a 5 minute read time at 30° C. using a BioRad Ultramark plate reader (Hercules, Calif.). The Ki values are determined from the rate data as a function of inhibitor concentration.

A further assay addresses T4, JAK-3 (Homo sapiens, UniProt P52333).
T4 sequence (P52333 1-1124): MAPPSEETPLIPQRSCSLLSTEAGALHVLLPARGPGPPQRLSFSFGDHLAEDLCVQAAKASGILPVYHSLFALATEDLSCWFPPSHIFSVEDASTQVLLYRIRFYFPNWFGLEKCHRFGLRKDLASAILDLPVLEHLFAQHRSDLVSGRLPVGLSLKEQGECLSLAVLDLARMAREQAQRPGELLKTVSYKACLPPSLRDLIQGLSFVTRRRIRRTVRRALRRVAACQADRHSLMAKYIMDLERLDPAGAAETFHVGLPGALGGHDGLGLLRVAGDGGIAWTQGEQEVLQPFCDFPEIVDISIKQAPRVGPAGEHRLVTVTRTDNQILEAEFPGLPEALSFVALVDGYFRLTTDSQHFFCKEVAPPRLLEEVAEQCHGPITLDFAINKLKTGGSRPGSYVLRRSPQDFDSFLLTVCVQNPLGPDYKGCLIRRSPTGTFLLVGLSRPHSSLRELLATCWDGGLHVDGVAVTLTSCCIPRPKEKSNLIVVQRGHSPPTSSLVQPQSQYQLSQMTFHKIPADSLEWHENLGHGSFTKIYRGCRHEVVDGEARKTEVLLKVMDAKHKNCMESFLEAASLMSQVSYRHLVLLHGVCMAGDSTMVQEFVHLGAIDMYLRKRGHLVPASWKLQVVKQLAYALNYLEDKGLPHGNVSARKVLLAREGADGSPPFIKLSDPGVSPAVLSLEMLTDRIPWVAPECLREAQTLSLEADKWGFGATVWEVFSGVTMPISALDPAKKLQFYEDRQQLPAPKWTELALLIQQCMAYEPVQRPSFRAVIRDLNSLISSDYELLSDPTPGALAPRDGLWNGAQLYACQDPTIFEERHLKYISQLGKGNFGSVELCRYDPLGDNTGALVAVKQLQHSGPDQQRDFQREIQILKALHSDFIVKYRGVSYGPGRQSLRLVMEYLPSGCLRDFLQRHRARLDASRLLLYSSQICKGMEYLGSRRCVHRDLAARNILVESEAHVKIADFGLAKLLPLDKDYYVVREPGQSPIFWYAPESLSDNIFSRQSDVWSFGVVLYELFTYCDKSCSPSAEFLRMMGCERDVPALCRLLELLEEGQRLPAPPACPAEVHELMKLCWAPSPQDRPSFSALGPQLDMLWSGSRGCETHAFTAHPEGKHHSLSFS
Briefly: JAK3 inhibition assay (ELISA, Poly (Glu, Ala, Tyr) coated plates). The conditions noted are these: 2 μM ATP. The procedure: Compound inhibition of JAK was assayed by the method described by G. R. Brown, et al, Bioorg. Med. Chem. Lett. 2000, vol. 10, pp 575-579 in the following manner. Into Maxisorb plates, previously coated at 4° C. with Poly (Glu, Ala, Tyr) 6:3:1 then washed with phosphate buffered saline 0.05% and Tween-(PBST), was added 2 μM ATP, 5 mM MgCl2, and a solution of compound in DMSO. The reaction was started with JAK enzyme and the plates incubated for 60 minutes at 30° C. The plates were then washed with PBST, 100 μL HRP-Conjugated 4G10 antibody was added, and the plate incubated for 90 minutes at 30° C. The plate was again washed with PBST, 100 μL TMB solution is added, and the plates were incubated for another 30 minutes at 30° C. Sulfuric acid (100 μL of 1M) was added to stop the reaction and the plate is read at 450 nm to obtain the optical densities for analysis to determine Ki values.

pKi: −log10 of the molar value.

T1 sequence (P12931 whole entry): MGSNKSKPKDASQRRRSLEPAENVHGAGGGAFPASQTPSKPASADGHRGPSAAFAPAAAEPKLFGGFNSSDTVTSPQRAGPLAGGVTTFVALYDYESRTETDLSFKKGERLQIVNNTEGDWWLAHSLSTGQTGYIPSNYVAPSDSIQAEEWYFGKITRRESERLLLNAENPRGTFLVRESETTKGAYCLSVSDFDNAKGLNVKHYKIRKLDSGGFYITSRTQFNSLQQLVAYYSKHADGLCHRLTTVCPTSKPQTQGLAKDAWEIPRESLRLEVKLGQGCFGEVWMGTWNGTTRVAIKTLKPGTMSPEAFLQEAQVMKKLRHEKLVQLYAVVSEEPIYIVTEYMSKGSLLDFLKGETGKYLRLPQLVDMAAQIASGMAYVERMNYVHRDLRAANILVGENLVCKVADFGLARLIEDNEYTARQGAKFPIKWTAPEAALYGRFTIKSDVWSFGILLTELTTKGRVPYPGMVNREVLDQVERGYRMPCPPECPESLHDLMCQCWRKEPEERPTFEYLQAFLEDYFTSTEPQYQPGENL

Take `c1ccc(Nc2ncn(-c3cc(N[C@H]4CCCNC4)ncn3)n2)cc1` [Compound I-103, [6-(3-Phenylamino-[1,2,4]triazol-1-yl)-pyrimidin-4-yl]-piperidin-3-yl-amine]: the pKi (commonly the negative decadic logarithm of the Ki, by convention in mol/L) at human Src kinase was more than 6.30; at PDK-1, more than 6.00; on Aurora-2 it was 6.00 to 7.00. For the compound `CCCN(CC1CC1)c1cc(-n2cnc(Nc3ccccc3)n2)ccn1` [Compound I-125, cyclopropylmethyl-[4-(3-phenylamino-[1,2,4]triazol-1-yl)-pyridin-2-yl]-propyl-amine], the negative-log Ki (pKi) on human Src kinase is less than 6.00. For the compound `CC1CCCCN1c1cc(-n2cnc(Nc3ccccc3)n2)ccn1` (centres unmarked) [Compound I-126, [1-(2-methyl-3,4,5,6-tetrahydro-2H-[1,2′]bipyridinyl-4′-yl)-1H-[1,2,4]triazol-3-yl]-phenyl-amine], the negative-log Ki (pKi) on human Src kinase was less than 6.00. As to `CN(c1cc(-n2cnc(Nc3ccccc3)n2)ccn1)C1CCCCC1` [Compound I-133], the negative-log Ki (pKi) on human Src kinase and at JAK-3 was less than 6.00 each time. Consider `NS(=O)(=O)c1ccc(Nc2ncn(-c3ccnc(N[C@H]4CCCNC4)c3)n2)cc1` [Compound I-104, 3-(S)-{4-[3-(4-Sulfamoyl-phenylamino)-[1,2,4]triazol-1-yl]-pyridin-2-ylamino}-piperidine], for which, at PDK-1, the negative-log Ki (pKi) was more than 6.00.
